Data set [1] deals with T1, steroid sulfatase (Rattus norvegicus, UniProt P15589).
T1 construct: the liver and the uterus were excised from each rat; from tissue; host or cells: rat liver and uterus homogenate (2,000 x g supernatant) after 5 days of dosing
T1 sequence (P15589 20-577): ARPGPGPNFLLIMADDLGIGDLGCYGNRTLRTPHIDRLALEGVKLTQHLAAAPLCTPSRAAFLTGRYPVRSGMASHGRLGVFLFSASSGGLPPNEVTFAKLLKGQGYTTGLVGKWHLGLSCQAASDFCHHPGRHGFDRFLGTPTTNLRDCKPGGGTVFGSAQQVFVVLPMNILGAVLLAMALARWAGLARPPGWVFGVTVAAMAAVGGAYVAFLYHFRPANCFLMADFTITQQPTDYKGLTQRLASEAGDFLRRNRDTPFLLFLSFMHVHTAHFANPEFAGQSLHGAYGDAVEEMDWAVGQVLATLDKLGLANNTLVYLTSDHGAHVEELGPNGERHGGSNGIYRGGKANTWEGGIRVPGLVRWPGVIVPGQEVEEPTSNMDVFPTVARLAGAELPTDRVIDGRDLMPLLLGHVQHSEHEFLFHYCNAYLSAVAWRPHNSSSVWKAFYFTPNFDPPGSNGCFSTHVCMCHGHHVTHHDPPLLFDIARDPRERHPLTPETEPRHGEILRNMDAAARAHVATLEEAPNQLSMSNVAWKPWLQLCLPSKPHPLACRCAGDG
The experiment in a line: In vivo inhibitory effect on steroid sulfatase (rat liver and uterus homogenates after 5 days of dosing). To be noted: po, once a day for 5 days, female SD rats, 4 hours after final administration. The source says:
(2) Measurement of an In vivo Inhibitory Effect on Steroid Sulfatase
A test compound was suspended in a 0.5% polyoxyethylene (20) sorbitan monooleate solution (Tween 80) and administered, once a day, to a group of 5 female SD strain rats (weighing 168-194 g) for 5 days.
Four hours after the final administration, all rats were sacrificed by ether anesthesia and dissected. Thus, the liver and the uterus were excised from each rat, washed once with cold phosphate-buffered saline (PBS, pH 7.4), and preserved at −70° C. or below. Each of the liver and the uterus was finely minced with scissors, and suspended in PBS containing 250 mM sucrose (5 ml/g tissue). Under cooling with ice, each suspension was homogenized with an Ultra-Turrax homogenizer. The resulting homogenate was centrifuged (at 4° C.) at 2,000×g for 30 minutes to remove nuclei and cell debris, and the protein concentration in this supernatant was measured according to the method of Bradford [Anal. Biochem. 72, 248-254(1976)].
The homogenate in an amount corresponding to a protein concentration of 100-500 μg/ml was mixed with [6,7-^3H]estrone 3-sulfate (with a specific activity of 49 Ci/mmol; from New England Nuclear, Boston, Mass., USA) in an amount corresponding to a substrate concentration of 20 μM. This mixture was diluted with PBS to a total volume of 1 ml, and incubated at 37° C. for 30 minutes. After incubation (1 ml), the steroid sulfatase activity was determined in the same manner as described above for the in vitro measurement (1).

For data set [2], the target named is T2, steroid sulfatase (Homo sapiens, UniProt P08842).
T2 sequence (P08842 22-583): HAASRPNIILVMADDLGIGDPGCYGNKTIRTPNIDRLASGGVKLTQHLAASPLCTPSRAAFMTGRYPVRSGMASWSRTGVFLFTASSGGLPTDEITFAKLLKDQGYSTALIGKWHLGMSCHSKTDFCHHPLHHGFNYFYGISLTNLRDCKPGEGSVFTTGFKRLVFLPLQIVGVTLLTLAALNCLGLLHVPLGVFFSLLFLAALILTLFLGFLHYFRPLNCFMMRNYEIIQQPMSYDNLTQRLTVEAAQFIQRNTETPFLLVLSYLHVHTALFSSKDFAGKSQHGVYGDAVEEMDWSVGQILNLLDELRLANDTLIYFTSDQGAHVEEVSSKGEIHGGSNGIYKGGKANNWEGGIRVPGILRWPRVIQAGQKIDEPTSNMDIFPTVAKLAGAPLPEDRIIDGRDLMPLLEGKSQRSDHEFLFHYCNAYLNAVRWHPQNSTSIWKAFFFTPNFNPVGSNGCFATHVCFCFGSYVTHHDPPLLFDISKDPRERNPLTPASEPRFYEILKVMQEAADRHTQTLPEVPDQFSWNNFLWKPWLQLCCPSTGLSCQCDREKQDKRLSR
In words: In vitro inhibitory effect on steroid sulfatase (intact MCF-7 cells, [3H]estrone 3-sulfate hydrolysis). The data set is classed as cell-based. Further details: Six-well plates (9.4 cm^2/well) were inoculated with intact MCF-7 human breast cancer cells; endogenous in cells; host or cells: MCF-7 human breast cancer cells. The conditions noted are these: MCF7; 3 × 10^−9 M test compound; intact MCF-7 human breast cancer cells; 37° C., 20 hours; read-out: Inhibitory rate (3 × 10^−9 M. %). The procedure:
(1) Measurement of an In vitro Inhibitory Effect on Steroid Sulfatase
Six-well plates (9.4 cm^2/well) were inoculated with intact MCF-7 human breast cancer cells at a density of about 1×10^5 cells/well. Using Dulbecco's modified Eagle medium (DMEM) containing 10 mM HEPES, 5% fetal bovine serum, 0.011% sodium pyruvate and 0.37% sodium bicarbonate, the cells were grown to 80% confluency.
The plates were washed with Earle's balanced salt solution (EBSS from Life Technologies Inc., Grand Island, N.Y., USA). Then, serum-free DMEM (2 ml) containing 4 pmol (4.4×10^5 dpm) of [6,7-^3H]estrone 3-sulfate (with a specific activity of 49 Ci/mmol; from New England Nuclear, Boston, Mass., USA), together with a test compound, was placed on each plate and incubated at 37° C. for 20 hours. After incubation, the plate was cooled, and the medium (1 ml) was pipetted into a separating tube containing [4-^14C]estrone (6×10^3 dpm) (with a specific activity of 52.5 mCi/mmol; from New England Nuclear, Boston, Mass., USA). This mixture, together with toluene (4 ml), was vigorously shaken for 30 seconds. It was shown by experiment that more than 90% of [4-^14C]estrone was removed from the aqueous layer by this treatment. A portion (2 ml) of the organic phase was taken, and the ^3H and ^14C contents thereof were measured by scintillation spectrometry. Then, the amount of estrone 3-sulfate hydrolyzed was calculated from the total 3H count (corrected for the volumes of the medium used and the organic phase, and for the recovery of the [^14C]estrone added) and the specific activity of the substrate.

Data set [3] deals with T2, steroid sulfatase. The conditions noted are these: qualitative statement on prior art compounds; cited from earlier work.
For data set [4] the following is noted: qualitative statement on prior art compounds; cited from earlier work.
Where [5] appears, read: liver, read-out: Inhibitory rate (0.5 mg/kg, p.o., %) Liver.
Setting [6] is: uterus, read-out: Inhibitory rate (0.5 mg/kg, p.o., %) Uterus.

The structures appear in SMILES notation. Like-named read-outs stand apart in the source and are kept apart here.

As to `NS(=O)(=O)Oc1ccc(-c2ccc([N+](=O)[O-])cc2)cc1` [Example 16, 4′-nitrobiphenyl-4-yl sulfamate], the inhibition at 0.5 mg/kg was 97% at steroid sulfatase [1] (setting [5]) and 100% at steroid sulfatase [1] (setting [6]).

In the case of `N#Cc1ccccc1-c1ccc(OS(N)(=O)=O)cc1` [Example 3, 2′-cyanobiphenyl-4-yl sulfamate], the inhibition at 0.5 mg/kg came to 95.4% at steroid sulfatase [1] (setting [5]) and 93.8% on steroid sulfatase [1] (setting [6]). For the same compound, on steroid sulfatase [2], the inhibition at 0.003 µM stood at 76%.

In the case of `N#Cc1ccc(-c2ccc(OS(N)(=O)=O)cc2)c(C#N)c1` [Example 27, 2′,4′-dicyanobiphenyl-4-yl sulfamate], the inhibition at 0.003 µM at steroid sulfatase [2] was determined as 94%.

Regarding `NS(=O)(=O)Oc1ccc(-c2ccc(OS(N)(=O)=O)cc2)cc1` [Example 21, biphenyl-4,4′-diyl disulfamate], the inhibition at 0.5 mg/kg came to 97.2% on steroid sulfatase [1] (setting [5]) and 97.6% on steroid sulfatase [1] (setting [6]).

Consider `N#Cc1ccc(N(Cc2ccc(OS(N)(=O)=O)cc2)n2cnnc2)cc1` [Example 38, 4-[N-(4-cyano-phenyl)-N-(1,2,4-triazol-4-yl)aminomethyl]phenyl sulfamate], for which the inhibition at 0.5 mg/kg at steroid sulfatase [1] (setting [5]) was 85.3%; at steroid sulfatase [1] (setting [6]) it was 79%.

Regarding `CCCCCCCCCCCCCC(=O)NCCc1ccc(OS(N)(=O)=O)cc1` [DU-14, 4-(2-myristoylaminoethyl)phenyl sulfamate], on steroid sulfatase [3], the “inhibitory effect on steroid sulfatase” value is on record as “weak”. Besides, the estrogenic action entry in data set [4] is reported as “do not show an estrogenic action”.

On to `NS(=O)(=O)Oc1ccc(-c2ccc([N+](=O)[O-])cc2[N+](=O)[O-])cc1` [Example 23, 2′,4′-dinitrobiphenyl-4-yl sulfamate], for which the inhibition at 0.003 µM at steroid sulfatase [2] came out at 67%.

As for `N#Cc1cc([N+](=O)[O-])ccc1-c1ccc(OS(N)(=O)=O)cc1` [Example 25, 2′-cyano-4′-nitrobiphenyl-4-yl sulfamate], the inhibition at 0.5 mg/kg on steroid sulfatase [1] (setting [5]) was 99.5%; at steroid sulfatase [1] (setting [6]), 100%. For the same compound, at steroid sulfatase [2], the inhibition at 0.003 µM was 87%.

In the case of `NS(=O)(=O)Oc1ccc(-c2ccccc2[N+](=O)[O-])cc1` [Example 1, 2′-nitrobiphenyl-4-yl sulfamate], the inhibition at 0.5 mg/kg at steroid sulfatase [1] (setting [5]) worked out at 91.2%; on steroid sulfatase [1] (setting [6]), 94.9%.

Consider `C[C@]12CC[C@@H]3c4ccc(OS(N)(=O)=O)cc4CC[C@H]3[C@@H]1CCC2=O` [EMATE, estrone 3-sulfamate], for which the “inhibitory effect on steroid sulfatase” value at steroid sulfatase [3] was “powerful inhibitory effect”. In addition, in data set [4], the estrogenic action result is given as “powerful estrogenic action”.

Turning to `Cc1cc(=O)oc2cc(OS(N)(=O)=O)ccc12` [COUMATE, 4-methylcoumarin 7-sulfamate], the “inhibitory effect on steroid sulfatase” value on steroid sulfatase [3] is “weak”. Moreover, the estrogenic action result in data set [4] is on record as “do not show an estrogenic action”.

The record behind these values is US6762205B1, “Phenyl sulfamate derivatives” (Teikoku Hormone Mfg. Co., Ltd., priority 1999, dated 2004).
